# Laboratory results taken from patent publication US11897862B2 (Gilead Sciences, Inc., priority 2022, dated 2024).
# Columns and labels:
# IKZF2 = IKZF2 (Homo sapiens, UniProt Q96SW2+Q9UKS7); experiment: HEK293 HiBiT in vitro degradation of IKZF2; assay type: cell-based; set-up: expressed in transfected cells; conditions: for Dmax: HEK293, HEK293 HiBiT; for Dmax / IKZF2 Dmax: maximum degradation at the highest concentration tested; for DC50 / IKZF2 Dmax: HEK293 HiBiT; for DC50: 18-24 hr incubation, normalized to DMSO control, read-out: IKZF2 EC50
# Procedure, shortened: (§1)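 EC50 and Dmax come from Nano-Glo lytic luminescence after 18-24 hr compound treatment at 37° C. Reporter cells were single-copy Flp-In T-REx HEK293 pools carrying HiBiT fused to the C-terminus of IKZF1, IKZF2 or SALL4. Expression was induced overnight beforehand with […] doxycycline.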
# IKZF1 = target: T1, IKZF1 (Homo sapiens, UniProt Q13422+Q96SW2); experiment: HEK293 HiBiT in vitro degradation of IKZF1; assay type: cell-based; conditions: for Dmax: HEK293, HEK293 HiBiT; for DC50: 18-24 hr incubation, normalized to DMSO control, read-out: IKZF1 EC50
# T1 construct: expressed in transfected cells
# Procedure, shortened: as §1
# [1] = maximum degradation at the highest concentration tested
# Chain of IKZF2 (Q9UKS7 1-500 isoform Q9UKS7-2): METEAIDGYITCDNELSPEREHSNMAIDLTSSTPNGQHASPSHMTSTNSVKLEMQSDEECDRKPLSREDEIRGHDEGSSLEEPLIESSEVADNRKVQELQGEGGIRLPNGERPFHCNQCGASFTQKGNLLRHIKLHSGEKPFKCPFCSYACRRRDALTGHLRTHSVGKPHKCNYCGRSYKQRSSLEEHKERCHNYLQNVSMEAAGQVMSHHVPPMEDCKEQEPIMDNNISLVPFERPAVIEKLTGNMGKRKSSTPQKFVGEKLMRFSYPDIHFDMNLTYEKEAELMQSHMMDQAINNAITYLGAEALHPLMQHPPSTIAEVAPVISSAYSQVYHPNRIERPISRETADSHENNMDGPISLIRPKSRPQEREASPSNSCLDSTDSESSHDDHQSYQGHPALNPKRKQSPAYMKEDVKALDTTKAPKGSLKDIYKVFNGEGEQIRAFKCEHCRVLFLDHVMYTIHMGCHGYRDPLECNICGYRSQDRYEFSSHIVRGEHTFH
# Chain of IKZF2 (Q96SW2 whole entry, the tested form may be a part): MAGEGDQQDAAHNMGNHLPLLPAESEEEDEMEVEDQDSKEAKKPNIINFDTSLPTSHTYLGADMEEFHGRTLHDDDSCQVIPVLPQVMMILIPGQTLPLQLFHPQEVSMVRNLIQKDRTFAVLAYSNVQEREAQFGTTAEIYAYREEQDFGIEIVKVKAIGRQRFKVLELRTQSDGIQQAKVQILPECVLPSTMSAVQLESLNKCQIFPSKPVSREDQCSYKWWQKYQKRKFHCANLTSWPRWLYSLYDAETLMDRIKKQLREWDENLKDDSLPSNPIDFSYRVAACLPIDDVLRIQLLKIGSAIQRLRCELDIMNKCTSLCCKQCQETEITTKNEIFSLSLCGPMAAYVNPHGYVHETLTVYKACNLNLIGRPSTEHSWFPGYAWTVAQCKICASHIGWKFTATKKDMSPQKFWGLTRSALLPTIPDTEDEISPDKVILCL
# Chain of IKZF2 (Q16531 whole entry partner, the tested form may be a part): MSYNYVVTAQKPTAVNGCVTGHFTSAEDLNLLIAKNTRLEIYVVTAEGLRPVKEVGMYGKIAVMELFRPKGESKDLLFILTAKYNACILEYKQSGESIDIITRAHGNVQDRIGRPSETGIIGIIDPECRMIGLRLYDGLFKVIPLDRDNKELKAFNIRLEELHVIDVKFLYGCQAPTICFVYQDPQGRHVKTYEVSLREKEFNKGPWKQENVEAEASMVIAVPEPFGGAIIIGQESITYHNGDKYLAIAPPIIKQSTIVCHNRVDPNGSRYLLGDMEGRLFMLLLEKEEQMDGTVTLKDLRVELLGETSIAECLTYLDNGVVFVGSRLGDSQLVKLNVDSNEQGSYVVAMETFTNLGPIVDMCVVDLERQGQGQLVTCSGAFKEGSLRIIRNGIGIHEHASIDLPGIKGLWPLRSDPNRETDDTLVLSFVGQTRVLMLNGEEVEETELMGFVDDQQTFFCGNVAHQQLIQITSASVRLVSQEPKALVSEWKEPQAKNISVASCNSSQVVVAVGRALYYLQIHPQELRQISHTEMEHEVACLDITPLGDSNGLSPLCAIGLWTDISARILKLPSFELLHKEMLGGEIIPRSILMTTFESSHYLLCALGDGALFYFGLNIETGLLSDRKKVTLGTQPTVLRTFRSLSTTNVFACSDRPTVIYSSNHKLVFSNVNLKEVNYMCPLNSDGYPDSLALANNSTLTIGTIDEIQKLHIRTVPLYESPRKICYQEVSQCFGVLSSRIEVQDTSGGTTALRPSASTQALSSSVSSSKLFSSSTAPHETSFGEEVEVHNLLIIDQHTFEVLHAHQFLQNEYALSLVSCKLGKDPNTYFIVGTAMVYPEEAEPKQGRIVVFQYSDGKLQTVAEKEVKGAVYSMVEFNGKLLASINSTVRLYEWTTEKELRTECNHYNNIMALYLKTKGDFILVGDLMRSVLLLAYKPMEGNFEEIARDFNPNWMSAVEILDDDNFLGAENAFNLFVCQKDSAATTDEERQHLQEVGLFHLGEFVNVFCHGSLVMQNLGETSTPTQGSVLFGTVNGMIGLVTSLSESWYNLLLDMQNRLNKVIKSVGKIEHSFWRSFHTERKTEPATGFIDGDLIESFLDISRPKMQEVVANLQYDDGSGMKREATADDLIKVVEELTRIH
# T1 sequence (Q13422 whole entry): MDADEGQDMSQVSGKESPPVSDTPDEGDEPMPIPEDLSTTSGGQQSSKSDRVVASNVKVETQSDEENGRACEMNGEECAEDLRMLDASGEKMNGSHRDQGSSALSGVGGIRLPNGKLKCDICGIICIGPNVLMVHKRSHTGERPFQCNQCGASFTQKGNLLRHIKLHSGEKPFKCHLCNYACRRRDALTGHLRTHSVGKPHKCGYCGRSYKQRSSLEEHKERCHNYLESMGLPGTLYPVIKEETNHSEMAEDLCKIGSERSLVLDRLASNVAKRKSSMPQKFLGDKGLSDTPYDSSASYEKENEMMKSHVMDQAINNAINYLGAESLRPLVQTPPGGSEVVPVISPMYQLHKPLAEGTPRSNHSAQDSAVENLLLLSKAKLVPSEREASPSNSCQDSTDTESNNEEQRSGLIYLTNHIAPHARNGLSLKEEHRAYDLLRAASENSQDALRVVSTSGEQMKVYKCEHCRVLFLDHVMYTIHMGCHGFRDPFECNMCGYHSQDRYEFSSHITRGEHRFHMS
# T1 sequence (Q96SW2 whole entry): as the sequence (Q96SW2 whole entry, the tested form may be a part) above
# T1 sequence (Q16531 whole entry partner): as the sequence (Q16531 whole entry partner, the tested form may be a part) above
Structure (SMILES),Dmax (IKZF2) [%],DC50 (IKZF2) [nM],Dmax (IKZF1; [1]) [%],DC50 (IKZF1; HEK293 HiBiT) [nM],IKZF2 Dmax (IKZF2) [%],"IKZF1 Dmax (IKZF1; HEK293 HiBiT, maximum degradation at the highest concentration tested) [%]"
[2H]C1(N[C@H]2CCCC[C@@H]2Cc2ccc3c(c2F)CN(C2CCC(=O)NC2=O)C3=O)CCCC1 (stereo partly drawn) [Example 212],98,1,42,45,–,–
[2H]C1(N[C@H]2CCCC[C@@H]2Cc2ccc3c(c2F)CN(C2CCC(=O)NC2=O)C3=O)CC2(CC2)C1 (stereo partly drawn) [Example 213],98,2,45,41,–,–
[2H]C1(N[C@H]2CCCC[C@@H]2Cc2ccc3c(c2)CN(C2CCC(=O)NC2=O)C3=O)CCCCC1 (stereo partly drawn) [Example 215],97,2,29,174,–,–
O=C1CCC(N2Cc3cc(C[C@H]4CCCC[C@@H]4NC4CCC(C(F)F)CC4)ccc3C2=O)C(=O)N1 (stereo partly drawn) [Example 216],98,2,34,51,–,–
O=C1CCC(N2Cc3cc(C[C@H]4CCCC[C@@H]4NC4CCCCC45CC5)ccc3C2=O)C(=O)N1 (stereo partly drawn) [Example 228],94,9,–,> 1000,–,–
O=C1CCC(N2Cc3cc(C[C@H]4CCCC[C@@H]4NC4CCCCC45CC5)ccc3C2=O)C(=O)N1 (stereo partly drawn) [Example 229],–,8,–,> 1000,97,–
CC(N[C@H]1CCCC[C@@H]1Cc1ccc2c(c1)CN(C1CCC(=O)NC1=O)C2=O)C1(C)CC1 (stereo partly drawn) [Example 234],98,11,–,> 1000,–,–
CC(N[C@H]1CCCC[C@@H]1Cc1ccc2c(c1)CN(C1CCC(=O)NC1=O)C2=O)C1(C)CC1 (stereo partly drawn) [Example 235],–,9,–,> 1000,97,–
C[C@H]1CCCC(N[C@H]2CCCC[C@@H]2Cc2ccc3c(c2)CN(C2CCC(=O)NC2=O)C3=O)C1 (stereo partly drawn) [Example 236],98,6,34,122,–,–
C[C@H]1CCCC(N[C@H]2CCCC[C@@H]2Cc2ccc3c(c2)CN(C2CCC(=O)NC2=O)C3=O)C1 (stereo partly drawn) [Example 237],–,2,–,208,96,39
"CCC(C)N[C@H]1CCCO[C@@H]1Cc1ccc2c(c1F)CN(C1CCC(=O)NC1=O)C2=O (stereo partly drawn) [Example 304, 3-(5-(((2R,3S)-3-(sec-butylamino)tetrahydro-2H-pyran-2-yl)methyl)-4-fluoro-1-oxoisoindolin-2-yl)piperidine-2,6-dione]",97,3,–,> 1000,–,–
CC(C)C(C)N[C@H]1CCCO[C@@H]1Cc1ccc2c(c1F)CN(C1CCC(=O)NC1=O)C2=O (stereo partly drawn) [Example 306],95,10,–,> 1000,–,–
CCC(C)N[C@H]1CCCC[C@@H]1Cc1ccc2c(c1F)CN(C1CCC(=O)NC1=O)C2=O (stereo partly drawn) [Example 307],96,1,40,111,–,–
CC(N[C@H]1CCCC[C@@H]1Cc1ccc2c(c1)CN(C1CCC(=O)NC1=O)C2=O)C1(C(F)F)CC1 (stereo partly drawn) [Example 311],95,11,–,> 1000,–,–
CC(N[C@H]1CCCC[C@@H]1Cc1ccc2c(c1)CN(C1CCC(=O)NC1=O)C2=O)C1(C(F)F)CC1 (stereo partly drawn) [Example 312],–,9,–,> 1000,95,–
"O=C1CCC(N2Cc3cc(C[C@H]4CC(F)(F)CC[C@@H]4NC4CCCCC4)ccc3C2=O)C(=O)N1 (stereo partly drawn) [Example 313, 3-(5-(((1S,2S)-2-(cyclohexylamino)-5,5-difluorocyclohexyl)methyl)-1-oxoisoindolin-2-yl)piperidine-2,6-dione]",88,27,–,> 1000,–,–
"O=C1CCC(N2Cc3cc(C[C@H]4C=C(F)CC[C@@H]4NC4CCCCC4)ccc3C2=O)C(=O)N1 (stereo partly drawn) [Example 314, 3-(5-(((1S,6S)-6-(cyclohexylamino)-3-fluorocyclohex-2-en-1-yl)methyl)-1-oxoisoindolin-2-yl)piperidine-2,6-dione]",70,90,30,653,–,–
CC(C)N[C@H]1CCC(F)(F)C[C@@H]1Cc1ccc2c(c1)CN(C1CCC(=O)NC1=O)C2=O (stereo partly drawn) [Example 315],88,28,–,> 1000,–,–
CC(N[C@H]1CCCO[C@@H]1Cc1ccc2c(c1F)CN(C1CCC(=O)NC1=O)C2=O)C1COC1 (stereo partly drawn) [Example 318],96,20,–,> 1000,–,–
CC(N[C@H]1CCCO[C@@H]1Cc1ccc2c(c1F)CN(C1CCC(=O)NC1=O)C2=O)C1COC1 (stereo partly drawn) [Example 319],–,24,–,> 1000,95,–

Structure (SMILES),Dmax (IKZF2) [%],DC50 (IKZF2) [nM],Dmax (IKZF1; [1]) [%],DC50 (IKZF1; HEK293 HiBiT) [nM],IKZF2 Dmax (IKZF2) [%],"IKZF1 Dmax (IKZF1; HEK293 HiBiT, maximum degradation at the highest concentration tested) [%]"
"CC(CCC(F)F)N[C@H]1CCCO[C@@H]1Cc1ccc2c(c1F)CN(C1CCC(=O)NC1=O)C2=O (stereo partly drawn) [Example 320, 3-(5-(((2R,3S)-3-((5,5-difluoropentan-2-yl)amino)tetrahydro-2H-pyran-2-yl)methyl)-4-fluoro-1-oxoisoindolin-2-yl)piperidine-2,6-dione]",93,11,–,> 1000,–,–
CC(CCCC(F)(F)F)N[C@H]1CCCO[C@@H]1Cc1ccc2c(c1F)CN(C1CCC(=O)NC1=O)C2=O (stereo partly drawn) [Example 321],94,6,44,371,–,–
"CCC(C)(C)N[C@H]1CCCC[C@@H]1Cc1ccc2c(c1)CN(C1CCC(=O)NC1=O)C2=O (stereo partly drawn) [Example 322, 3-(1-oxo-5-(((1R,2S)-2-(tert-pentylamino)cyclohexyl)methyl)isoindolin-2-yl)piperidine-2,6-dione]",72,54,–,> 1000,–,–
"O=C1CCC(N2Cc3cc(C[C@H]4CCCC[C@@H]4NC4CCC(OC(F)F)CC4)ccc3C2=O)C(=O)N1 (stereo partly drawn) [Example 323, 3-(5-(((1R,2S)-2-((4-(difluoromethoxy)cyclohexyl)amino)cyclohexyl)methyl)-1-oxoisoindolin-2-yl)piperidine-2,6-dione]",96,3,45,50,–,–
O=C1CCC(N2Cc3cc(C[C@H]4CCCCC[C@@H]4NC4CCC(F)(F)CC4)ccc3C2=O)C(=O)N1 (stereo partly drawn) [Example 340],55,76,–,> 1000,–,–
O=C1CCC(N2Cc3cc(C[C@H]4C[C@@H](F)CC[C@@H]4NC4CCC(F)(F)CC4)ccc3C2=O)C(=O)N1 (stereo partly drawn) [Example 341],87,21,–,> 1000,–,–
O=C1CCC(N2Cc3cc(C[C@H]4C[C@@H](F)CC[C@@H]4NC4CCCCC4)ccc3C2=O)C(=O)N1 (stereo partly drawn) [Example 342],86,18,–,> 1000,–,–
O=C1CCC(N2Cc3cc(C[C@H]4CCC(F)(F)C[C@@H]4NC4CCC(F)(F)CC4)ccc3C2=O)C(=O)N1 (stereo partly drawn) [Example 345],97,4,56,174,–,–
O=C1CC[C@H](N2Cc3cc(C[C@H]4CCCC[C@@H]4NC4CCC(F)(F)CC4)cc(F)c3C2=O)C(=O)N1 [Example 347],75,38,–,> 1000,–,–
CC(C)N[C@H]1CC(F)(F)CC[C@@H]1Cc1ccc2c(c1)CN(C1CCC(=O)NC1=O)C2=O (stereo partly drawn) [Example 348],97,2,39,62,–,–
CC(N[C@H]1CC(F)(F)CC[C@@H]1Cc1ccc2c(c1)CN(C1CCC(=O)NC1=O)C2=O)C1CCOCC1 (stereo partly drawn) [Example 349],92,11,42,89,–,–
O=C1CCC(N2Cc3cc(C[C@H]4CCCC[C@@H]4NC4CCC(F)(F)CC4)c(F)cc3C2=O)C(=O)N1 (stereo partly drawn) [Example 350],94,10,50,124,–,–
O=C1CCC(N2Cc3cc(C[C@H]4CC[C@@H](F)C[C@@H]4NC4CCC(F)(F)CC4)ccc3C2=O)C(=O)N1 (stereo partly drawn) [Example 354],93,3,32,30,–,–
O=C1CCC(N2Cc3cc(C[C@H]4CC[C@@H](F)C[C@@H]4NC4CCCCC4)ccc3C2=O)C(=O)N1 (stereo partly drawn) [Example 355],91,5,–,> 1000,–,–
O=C1CC[C@H](N2Cc3c(ccc(C[C@H]4OCCC[C@@H]4N[C@H]4CC[C@@H](C(F)F)CC4)c3F)C2=O)C(=O)N1 [Example 368],96,8,–,> 1000,–,–
O=C1CCC(N2Cc3c(ccc(C[C@H]4OCCC[C@@H]4NC4CCc5cn[nH]c5C4)c3F)C2=O)C(=O)N1 (stereo partly drawn) [Example 374],98,58,–,> 1000,–,–
O=C1CCC(N2Cc3cc(C[C@H]4CCCC[C@@H]4NC4CCc5c(C(F)(F)F)n[nH]c5C4)ccc3C2=O)C(=O)N1 (stereo partly drawn) [Example 375],99,4,65,48,–,–
O=C1CCC(N2Cc3cc(C[C@H]4CCCC[C@@H]4NC4CCC(c5ccccn5)CC4)ccc3C2=O)C(=O)N1 (stereo partly drawn) [Example 379],96,3,62,44,–,–
O=C1CCC(N2Cc3cc(C[C@H]4CCCC[C@@H]4NC4CCC(n5cnnc5)CC4)ccc3C2=O)C(=O)N1 (stereo partly drawn) [Example 380],71,400,–,> 1000,–,–
"C=C1CC[C@H](N)[C@@H](Cc2ccc3c(c2)CN(C2CCC(=O)NC2=O)C3=O)C1 (stereo partly drawn) [Example 381, 3-(5-(((1R,2S)-2-amino-5-methylenecyclohexyl)methyl)-1-oxoisoindolin-2-yl)piperidine-2,6-dione]",65,207,29,108,–,–
